{"source": "patent US20130150444A1", "about": "“MODIFIED RELEASE COMPOSITIONS OF MAGNESIUM VALPROATE” (CADILA HEALTHCARE LIMITED, priority 2011, published 2013)", "origin": "cited, not measured here", "settings": "in comparison with sodium valproate or valproic acid"}
{"substance": "magnesium 2-propylvalerate [magnesium valproate]", "values": [{"measurement": "absorption rate", "result": "slower and more regular"}]}
